# ± gives the expanded uncertainty stated by the source.
# Assay: xn = mol fraction of the nth substance listed
# Conditions: 101 kPa, Liquid, Vibrating tube method
smiles,measurement,setting,value
OCC(O)CO [glycerol] + O,mass density,"298.15 K, x1 = 0.00439",1002.17 ± 0.11 kg/m3
same,mass density,"298.15 K, x1 = 0.0051",1002.98 ± 0.11 kg/m3
same,mass density,"298.15 K, x1 = 0.00657",1004.67 ± 0.11 kg/m3
same,mass density,"298.15 K, x1 = 0.01072",1009.34 ± 0.11 kg/m3
same,mass density,"298.15 K, x1 = 0.01633",1015.48 ± 0.11 kg/m3
same,mass density,"298.15 K, x1 = 0.03504",1034.47 ± 0.11 kg/m3
same,mass density,"298.15 K, x1 = 0.05086",1049.05 ± 0.12 kg/m3
same,mass density,"298.15 K, x1 = 0.06775",1063.23 ± 0.12 kg/m3
same,mass density,"298.15 K, x1 = 0.1127",1095.24 ± 0.14 kg/m3
same,mass density,"298.15 K, x1 = 0.1559",1119.87 ± 0.15 kg/m3
same,mass density,"298.15 K, x1 = 0.206",1142.86 ± 0.16 kg/m3
same,mass density,"298.15 K, x1 = 0.256",1161.34 ± 0.16 kg/m3
same,mass density,"298.15 K, x1 = 0.3311",1183 ± 0.17 kg/m3
same,mass density,"298.15 K, x1 = 0.4012",1198.45 ± 0.17 kg/m3
same,mass density,"298.15 K, x1 = 0.4907",1213.75 ± 0.18 kg/m3
same,mass density,"298.15 K, x1 = 0.5828",1225.65 ± 0.17 kg/m3
same,mass density,"298.15 K, x1 = 0.6857",1236.32 ± 0.18 kg/m3
same,mass density,"298.15 K, x1 = 0.7494",1241.81 ± 0.19 kg/m3
same,mass density,"298.15 K, x1 = 0.8101",1246.48 ± 0.19 kg/m3
same,mass density,"298.15 K, x1 = 0.8528",1249.4 ± 0.2 kg/m3
same,mass density,"298.15 K, x1 = 0.882",1251.36 ± 0.2 kg/m3
same,mass density,"298.15 K, x1 = 0.9143",1253.31 ± 0.21 kg/m3
same,mass density,"298.15 K, x1 = 0.9408",1254.8 ± 0.21 kg/m3
same,mass density,"298.15 K, x1 = 0.9578",1255.73 ± 0.21 kg/m3
same,mass density,"298.15 K, x1 = 0.9792",1256.89 ± 0.21 kg/m3
same,mass density,"298.15 K, x1 = 0.9895",1257.41 ± 0.22 kg/m3
same,mass density,"298.15 K, x1 = 1",1257.91 ± 0.22 kg/m3
same,mass density,"308.15 K, x1 = 0.00209",996.42 ± 0.11 kg/m3
same,mass density,"308.15 K, x1 = 0.00439",999.06 ± 0.11 kg/m3
same,mass density,"308.15 K, x1 = 0.0051",999.87 ± 0.11 kg/m3
same,mass density,"308.15 K, x1 = 0.00657",1001.52 ± 0.11 kg/m3
same,mass density,"308.15 K, x1 = 0.01072",1006.11 ± 0.11 kg/m3
same,mass density,"308.15 K, x1 = 0.01633",1012.13 ± 0.11 kg/m3
same,mass density,"308.15 K, x1 = 0.03504",1030.74 ± 0.11 kg/m3
same,mass density,"308.15 K, x1 = 0.05086",1045.04 ± 0.12 kg/m3
same,mass density,"308.15 K, x1 = 0.06775",1058.94 ± 0.12 kg/m3
same,mass density,"308.15 K, x1 = 0.1127",1090.4 ± 0.14 kg/m3
same,mass density,"308.15 K, x1 = 0.1559",1114.62 ± 0.15 kg/m3
same,mass density,"308.15 K, x1 = 0.206",1137.3 ± 0.16 kg/m3
same,mass density,"308.15 K, x1 = 0.256",1155.48 ± 0.16 kg/m3
same,mass density,"308.15 K, x1 = 0.3311",1177.16 ± 0.17 kg/m3
same,mass density,"308.15 K, x1 = 0.4012",1192.55 ± 0.17 kg/m3
same,mass density,"308.15 K, x1 = 0.4907",1207.7 ± 0.17 kg/m3
same,mass density,"308.15 K, x1 = 0.5828",1219.6 ± 0.17 kg/m3
same,mass density,"308.15 K, x1 = 0.6857",1230.18 ± 0.18 kg/m3
same,mass density,"308.15 K, x1 = 0.7494",1235.6 ± 0.18 kg/m3
same,mass density,"308.15 K, x1 = 0.8101",1240.19 ± 0.19 kg/m3
same,mass density,"308.15 K, x1 = 0.8528",1243.15 ± 0.2 kg/m3
same,mass density,"308.15 K, x1 = 0.882",1245.07 ± 0.2 kg/m3
same,mass density,"308.15 K, x1 = 0.9143",1247.06 ± 0.2 kg/m3
same,mass density,"308.15 K, x1 = 0.9408",1248.55 ± 0.21 kg/m3
same,mass density,"308.15 K, x1 = 0.9578",1249.47 ± 0.21 kg/m3
same,mass density,"308.15 K, x1 = 0.9792",1250.63 ± 0.21 kg/m3
same,mass density,"308.15 K, x1 = 0.9895",1251.16 ± 0.21 kg/m3
same,mass density,"308.15 K, x1 = 1",1251.66 ± 0.22 kg/m3
same,mass density,"323.15 K, x1 = 0.00209",990.39 ± 0.11 kg/m3
same,mass density,"323.15 K, x1 = 0.00439",992.99 ± 0.11 kg/m3
same,mass density,"323.15 K, x1 = 0.0051",993.77 ± 0.11 kg/m3
same,mass density,"323.15 K, x1 = 0.00657",995.4 ± 0.11 kg/m3
same,mass density,"323.15 K, x1 = 0.01072",999.9 ± 0.11 kg/m3
same,mass density,"323.15 K, x1 = 0.01633",1005.81 ± 0.11 kg/m3
same,mass density,"323.15 K, x1 = 0.03504",1024.15 ± 0.11 kg/m3
same,mass density,"323.15 K, x1 = 0.05086",1038.23 ± 0.12 kg/m3
same,mass density,"323.15 K, x1 = 0.06775",1051.86 ± 0.12 kg/m3
same,mass density,"323.15 K, x1 = 0.1127",1082.82 ± 0.14 kg/m3
same,mass density,"323.15 K, x1 = 0.1559",1106.34 ± 0.15 kg/m3
same,mass density,"323.15 K, x1 = 0.206",1128.58 ± 0.15 kg/m3
same,mass density,"323.15 K, x1 = 0.256",1146.57 ± 0.16 kg/m3
same,mass density,"323.15 K, x1 = 0.3311",1168.09 ± 0.16 kg/m3
same,mass density,"323.15 K, x1 = 0.4012",1183.35 ± 0.17 kg/m3
same,mass density,"323.15 K, x1 = 0.4907",1198.19 ± 0.17 kg/m3
same,mass density,"323.15 K, x1 = 0.5828",1210.22 ± 0.17 kg/m3
same,mass density,"323.15 K, x1 = 0.6857",1220.77 ± 0.18 kg/m3
same,mass density,"323.15 K, x1 = 0.7494",1226.23 ± 0.18 kg/m3
same,mass density,"323.15 K, x1 = 0.8101",1230.76 ± 0.19 kg/m3
same,mass density,"323.15 K, x1 = 0.8528",1233.67 ± 0.19 kg/m3
same,mass density,"323.15 K, x1 = 0.882",1235.56 ± 0.2 kg/m3
same,mass density,"323.15 K, x1 = 0.9143",1237.53 ± 0.2 kg/m3
same,mass density,"323.15 K, x1 = 0.9408",1239.01 ± 0.2 kg/m3
same,mass density,"323.15 K, x1 = 0.9578",1239.93 ± 0.21 kg/m3
same,mass density,"323.15 K, x1 = 0.9792",1241.1 ± 0.21 kg/m3
same,mass density,"323.15 K, x1 = 0.9895",1241.61 ± 0.21 kg/m3
same,mass density,"323.15 K, x1 = 1",1242.11 ± 0.21 kg/m3
same,mass density,"333.15 K, x1 = 0.00209",985.55 ± 0.11 kg/m3
same,mass density,"333.15 K, x1 = 0.00439",988.13 ± 0.11 kg/m3
same,mass density,"333.15 K, x1 = 0.0051",988.9 ± 0.11 kg/m3
same,mass density,"333.15 K, x1 = 0.00657",990.52 ± 0.11 kg/m3
same,mass density,"333.15 K, x1 = 0.01072",994.98 ± 0.11 kg/m3
same,mass density,"333.15 K, x1 = 0.01633",1000.85 ± 0.11 kg/m3
same,mass density,"333.15 K, x1 = 0.03504",1018.99 ± 0.11 kg/m3
same,mass density,"333.15 K, x1 = 0.05086",1032.9 ± 0.12 kg/m3
same,mass density,"333.15 K, x1 = 0.06775",1046.46 ± 0.12 kg/m3
same,mass density,"333.15 K, x1 = 0.1127",1077.08 ± 0.14 kg/m3
same,mass density,"333.15 K, x1 = 0.1559",1100.45 ± 0.14 kg/m3
same,mass density,"333.15 K, x1 = 0.206",1122.53 ± 0.15 kg/m3
same,mass density,"333.15 K, x1 = 0.256",1140.39 ± 0.16 kg/m3
same,mass density,"333.15 K, x1 = 0.3311",1161.69 ± 0.16 kg/m3
same,mass density,"333.15 K, x1 = 0.4012",1177 ± 0.16 kg/m3
same,mass density,"333.15 K, x1 = 0.4907",1191.81 ± 0.17 kg/m3
same,mass density,"333.15 K, x1 = 0.5828",1203.79 ± 0.17 kg/m3
same,mass density,"333.15 K, x1 = 0.6857",1214.31 ± 0.17 kg/m3
same,mass density,"333.15 K, x1 = 0.7494",1219.8 ± 0.18 kg/m3
same,mass density,"333.15 K, x1 = 0.8101",1224.29 ± 0.19 kg/m3
same,mass density,"333.15 K, x1 = 0.8528",1227.21 ± 0.19 kg/m3
same,mass density,"333.15 K, x1 = 0.882",1229.08 ± 0.19 kg/m3
same,mass density,"333.15 K, x1 = 0.9143",1231.07 ± 0.2 kg/m3
same,mass density,"333.15 K, x1 = 0.9408",1232.59 ± 0.2 kg/m3
same,mass density,"333.15 K, x1 = 0.9578",1233.52 ± 0.2 kg/m3
same,mass density,"333.15 K, x1 = 0.9792",1234.68 ± 0.21 kg/m3
same,mass density,"333.15 K, x1 = 0.9895",1235.2 ± 0.21 kg/m3
same,mass density,"333.15 K, x1 = 1",1235.71 ± 0.21 kg/m3
same,mass density,"348.15 K, x1 = 0.00209",977.18 ± 0.11 kg/m3
same,mass density,"348.15 K, x1 = 0.00439",979.74 ± 0.11 kg/m3
same,mass density,"348.15 K, x1 = 0.0051",980.52 ± 0.11 kg/m3
same,mass density,"348.15 K, x1 = 0.00657",982.12 ± 0.11 kg/m3
same,mass density,"348.15 K, x1 = 0.01072",986.55 ± 0.11 kg/m3
same,mass density,"348.15 K, x1 = 0.01633",992.29 ± 0.11 kg/m3
same,mass density,"348.15 K, x1 = 0.03504",1010.23 ± 0.11 kg/m3
same,mass density,"348.15 K, x1 = 0.05086",1024.05 ± 0.12 kg/m3
same,mass density,"348.15 K, x1 = 0.06775",1037.5 ± 0.12 kg/m3
same,mass density,"348.15 K, x1 = 0.1127",1067.8 ± 0.14 kg/m3
same,mass density,"348.15 K, x1 = 0.1559",1090.81 ± 0.14 kg/m3
same,mass density,"348.15 K, x1 = 0.206",1112.88 ± 0.15 kg/m3
same,mass density,"348.15 K, x1 = 0.256",1130.45 ± 0.15 kg/m3
same,mass density,"348.15 K, x1 = 0.3311",1151.47 ± 0.16 kg/m3
same,mass density,"348.15 K, x1 = 0.4012",1166.73 ± 0.16 kg/m3
same,mass density,"348.15 K, x1 = 0.4907",1181.85 ± 0.17 kg/m3
same,mass density,"348.15 K, x1 = 0.5828",1193.86 ± 0.17 kg/m3
same,mass density,"348.15 K, x1 = 0.6857",1204.27 ± 0.17 kg/m3
same,mass density,"348.15 K, x1 = 0.7494",1209.73 ± 0.18 kg/m3
same,mass density,"348.15 K, x1 = 0.8101",1214.26 ± 0.18 kg/m3
same,mass density,"348.15 K, x1 = 0.8528",1217.21 ± 0.19 kg/m3
same,mass density,"348.15 K, x1 = 0.882",1219.1 ± 0.19 kg/m3
same,mass density,"348.15 K, x1 = 0.9143",1221.08 ± 0.19 kg/m3
same,mass density,"348.15 K, x1 = 0.9408",1222.63 ± 0.2 kg/m3
same,mass density,"348.15 K, x1 = 0.9578",1223.59 ± 0.2 kg/m3
same,mass density,"348.15 K, x1 = 0.9792",1224.76 ± 0.2 kg/m3
same,mass density,"348.15 K, x1 = 0.9895",1225.28 ± 0.2 kg/m3
same,mass density,"348.15 K, x1 = 1",1225.79 ± 0.21 kg/m3
